PubChem BioAssay AID1963972 (Molecular Pharmacology Branch, DTP, NCI, 2024)

Test system: 945468-187-T-J2-PDC spheroids viability
Assay: Anticancer human tumor 945468-187-T-J2-PDC patient-derived rectal carcinoma cell line growth inhibition [PI3K]
Conditions: spheroids with HUVEC and MSC; for IC50: curve of first compound; for viability, T/C: stronger effect = lower value; active = viability on the fitted dose curve at most 10% of control; inactive = the rest
Summary of the method: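 High-throughput combination screen: PI3K inhibitors crossed with targeted small molecules on complex spheroids of tumor cells, HUVEC and MSCs at 37 degrees C, 5% CO2. Top concentration was at or near clinical Cmax (otherwise 10 microM), with half-log decrements.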

[1] = second compound 0.0316 µM, first compound 0.0316 µM
[2] = second compound 0.0316 µM, first compound 0.1 µM
[3] = second compound 0.1 µM, first compound 0.0316 µM
[4] = second compound 0.1 µM, first compound 0.1 µM
[5] = second compound 0.316 µM, first compound 0.0316 µM
[6] = second compound 0.316 µM, first compound 0.1 µM
[7] = second compound 1 µM, first compound 0.0316 µM
[8] = second compound 1 µM, first compound 0.1 µM
[9] = second compound 3.16 µM, first compound 0.0316 µM
[10] = second compound 3.16 µM, first compound 0.1 µM
[11] = second compound 10 µM, first compound 0.0316 µM
[12] = second compound 10 µM, first compound 0.1 µM
[13] = second compound 0.0316 µM, first compound 0.000316 µM
[14] = second compound 0.0316 µM, first compound 0.001 µM
[15] = second compound 0.0316 µM, first compound 0.00316 µM
[16] = second compound 0.0316 µM, first compound 0.01 µM
[17] = second compound 0.1 µM, first compound 0.000316 µM
[18] = second compound 0.1 µM, first compound 0.001 µM
[19] = second compound 0.1 µM, first compound 0.00316 µM
[20] = second compound 0.1 µM, first compound 0.01 µM
[21] = second compound 0.316 µM, first compound 0.000316 µM
[22] = second compound 0.316 µM, first compound 0.001 µM
[23] = second compound 0.316 µM, first compound 0.00316 µM
[24] = second compound 0.316 µM, first compound 0.01 µM
[25] = second compound 1 µM, first compound 0.000316 µM
[26] = second compound 1 µM, first compound 0.001 µM
[27] = second compound 1 µM, first compound 0.00316 µM
[28] = second compound 1 µM, first compound 0.01 µM
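Note: spheroids exposed to compounds for seven days before reading.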

CNC(=O)c1ccc(N2C(=S)N(c3ccc(C#N)c(C(F)(F)F)c3)C(=O)C2(C)C)cc1F + CC(Nc1ncnc2nc[nH]c12)c1cc2cccc(Cl)c2c(=O)n1-c1ccccc1
inactive: viability, T/C [1] 111% | viability, T/C [2] 93.6% | viability, T/C (second compound 0.0316 µM, first compound 0.316 µM) 96.3% | viability, T/C (second compound 0.0316 µM, first compound 1 µM) 85.3% | viability, T/C (second compound 0.0316 µM, first compound 3.16 µM) 85.1% | viability, T/C (second compound 0.0316 µM, first compound 10 µM) 75.7% | viability, T/C [3] 92.6% | viability, T/C [4] 92.5% | viability, T/C (second compound 0.1 µM, first compound 0.316 µM) 91.1% | viability, T/C (second compound 0.1 µM, first compound 1 µM) 91% | viability, T/C (second compound 0.1 µM, first compound 3.16 µM) 106% | viability, T/C (second compound 0.1 µM, first compound 10 µM) 88.3% | viability, T/C [5] 138% | viability, T/C [6] 100% | viability, T/C (second compound 0.316 µM, first compound 0.316 µM) 95.7% | viability, T/C (second compound 0.316 µM, first compound 1 µM) 111% | viability, T/C (second compound 0.316 µM, first compound 3.16 µM) 101% | viability, T/C (second compound 0.316 µM, first compound 10 µM) 89.5% | viability, T/C [7] 95.5% | viability, T/C [8] 87% | viability, T/C (second compound 1 µM, first compound 0.316 µM) 100% | viability, T/C (second compound 1 µM, first compound 1 µM) 105% | viability, T/C (second compound 1 µM, first compound 3.16 µM) 104% | viability, T/C (second compound 1 µM, first compound 10 µM) 114% | viability, T/C [9] 111% | viability, T/C [10] 93.9% | viability, T/C (second compound 3.16 µM, first compound 0.316 µM) 89.7% | viability, T/C (second compound 3.16 µM, first compound 1 µM) 106% | viability, T/C (second compound 3.16 µM, first compound 3.16 µM) 105% | viability, T/C (second compound 3.16 µM, first compound 10 µM) 93.3% | viability, T/C [11] 89.4% | viability, T/C [12] 108% | viability, T/C (second compound 10 µM, first compound 0.316 µM) 101% | viability, T/C (second compound 10 µM, first compound 1 µM) 102% | viability, T/C (second compound 10 µM, first compound 3.16 µM) 113% | viability, T/C (second compound 10 µM, first compound 10 µM) 90.5%
> 10000 nM: IC50 (second compound 0.0316 µM) | IC50 (second compound 0.1 µM) | IC50 (second compound 0.316 µM) | IC50 (second compound 1 µM) | IC50 (second compound 3.16 µM) | IC50 (second compound 10 µM)

CC(C)n1nc(-c2ccc3oc(N)nc3c2)c2c(N)ncnc21 + COc1c(OCCCN2CCOCC2)ccc2c3n(c(=NC(=O)c4cnc(N)nc4)nc12)CCN3
> 100 nM: IC50 (second compound 0.00316 µM) | IC50 (second compound 0.01 µM)
20.4 nM: IC50 (second compound 0.1 µM)
< 0.316 nM: IC50 (second compound 0.316 µM) | IC50 (second compound 1 µM)
inactive: viability, T/C (second compound 0.00316 µM, first compound 0.000316 µM) 82.4% | viability, T/C (second compound 0.00316 µM, first compound 0.001 µM) 83.8% | viability, T/C (second compound 0.00316 µM, first compound 0.00316 µM) 81.7% | viability, T/C (second compound 0.00316 µM, first compound 0.01 µM) 84.3% | viability, T/C (second compound 0.00316 µM, first compound 0.0316 µM) 73.6% | viability, T/C (second compound 0.00316 µM, first compound 0.1 µM) 61.1% | viability, T/C (second compound 0.01 µM, first compound 0.000316 µM) 120% | viability, T/C (second compound 0.01 µM, first compound 0.001 µM) 109% | viability, T/C (second compound 0.01 µM, first compound 0.00316 µM) 80.7% | viability, T/C (second compound 0.01 µM, first compound 0.01 µM) 82.7% | viability, T/C (second compound 0.01 µM, first compound 0.0316 µM) 66.6% | viability, T/C (second compound 0.01 µM, first compound 0.1 µM) 66.1% | viability, T/C [13] 77.1% | viability, T/C [14] 85.8% | viability, T/C [15] 116% | viability, T/C [16] 86% | viability, T/C [1] 79.1% | viability, T/C [2] 27.4% | viability, T/C [17] 76.2% | viability, T/C [18] 76.2% | viability, T/C [19] 61.5% | viability, T/C [20] 75.6% | viability, T/C [3] 36.2% | viability, T/C [4] 16.7% | viability, T/C [21] 36.5% | viability, T/C [22] 31.8% | viability, T/C [23] 26.5% | viability, T/C [24] 25.4% | viability, T/C [5] 17.6% | viability, T/C [6] 10.9% | viability, T/C [25] 20.2% | viability, T/C [26] 22.1% | viability, T/C [27] 17.7% | viability, T/C [28] 13.8% | viability, T/C [7] 12.1% | viability, T/C [8] 11.3%
60.5 nM: IC50 (second compound 0.0316 µM)

CC(C)n1nc(-c2ccc3oc(N)nc3c2)c2c(N)ncnc21 + CC(Nc1ncnc2nc[nH]c12)c1cc2cccc(Cl)c2c(=O)n1-c1ccccc1
inactive: viability, T/C [13] 93.8% | viability, T/C [14] 87.3% | viability, T/C [15] 96.4% | viability, T/C [16] 107% | viability, T/C [1] 117% | viability, T/C [2] 62.8% | viability, T/C [17] 96.2% | viability, T/C [18] 94.3% | viability, T/C [19] 99.4% | viability, T/C [20] 84.2% | viability, T/C [3] 115% | viability, T/C [4] 73.5% | viability, T/C [21] 97.1% | viability, T/C [22] 89% | viability, T/C [23] 94.7% | viability, T/C [24] 134% | viability, T/C [5] 96.1% | viability, T/C [6] 71% | viability, T/C [25] 87.6% | viability, T/C [26] 136% | viability, T/C [27] 95.8% | viability, T/C [28] 93.2% | viability, T/C [7] 78.2% | viability, T/C [8] 55% | viability, T/C (second compound 3.16 µM, first compound 0.000316 µM) 85.5% | viability, T/C (second compound 3.16 µM, first compound 0.001 µM) 107% | viability, T/C (second compound 3.16 µM, first compound 0.00316 µM) 90.3% | viability, T/C (second compound 3.16 µM, first compound 0.01 µM) 106% | viability, T/C [9] 92.9% | viability, T/C [10] 62.3% | viability, T/C (second compound 10 µM, first compound 0.000316 µM) 109% | viability, T/C (second compound 10 µM, first compound 0.001 µM) 84.5% | viability, T/C (second compound 10 µM, first compound 0.00316 µM) 108% | viability, T/C (second compound 10 µM, first compound 0.01 µM) 88.4% | viability, T/C [11] 78.2% | viability, T/C [12] 82.8%
> 100 nM: IC50 (second compound 0.0316 µM) | IC50 (second compound 0.1 µM) | IC50 (second compound 0.316 µM) | IC50 (second compound 1 µM) | IC50 (second compound 3.16 µM) | IC50 (second compound 10 µM)
